Measured values published in patent US8563578B2, “Antitumor properties of NO modified protease inhibitors” (Onconox APS, priority 2008, dated 2013).

System: B16 cells
Experiment: Viability (MTT) of B16 cells with Saq-NO2 plus Akt/PI-3K inhibitor
Format: cell-based, mouse
Conditions: B16, 24 h, 18.8 μM Saq-NO2 with Akt VI (50μg/ml) or 3-MA (1 mM)
Description: Reduction of 3-4,5-dimethylthiazol-2-yl)-2,5-diphenyltetrazolium bromide (MTT) to formazan depends on mitochondrial activity of cultured cells, absorption of crystal violet dye correlates with the number of adherent, live cells, while the release of cytosolic lactate dehydrogenase (LDH) indicates the disruption of membrane integrity caracteristic for necrotic cells. The cells were seeded in flat-bottom 96-well plates in a final volume of 200 μl of culture medium containing different agents, and the assays were performed after 24 h incubation exactly as previously described (Mijatovic et al. 2004, Decker et al., 1998). Mitohondrial-dependent production of formazan and intensity of absorbed crystal violet by adherent cells were assessed by an automated microplate reader at 570 nm, while the pyruvate-mediated conversion of 2,4-dinitrophenylhydrazine into visible hydrazone precipitate in LDH assay was measured at 492 nm. The % of cytotoxicity as indicated by LDH release was calculated as: (E−C)/(T−C)×100, where E is the experimental absorbance of cell cultures, C is the control absorbance of cell-free culture medium, and T is the absorbance corresponding to the maximal (100%) LDH release of Triton-lysed cells.
FIG. 6. […] (C) B16 cells (1×10^4 cells/well) were incubated for 24 h with 18.8 μM Saq-NO2 with or without Akt VI (50μg/ml) or 3-MA (1 mM) and cell viability was assessed by MTT. […]

SMILES: Cn1cnc(=N)c2[nH]cnc21 [3-MA]
- tumor cell viability on addition of inhibitor to Saq-NO2: further decrease of tumor cell viability
